From patent US20240366567A1, “PHARMACEUTICAL COMBINATIONS COMPRISING A KRAS G12C INHIBITOR AND USES THEREOF FOR THE TREATMENT OF CANCERS” (NOVARTIS AG, priority 2021, published 2024)
Like-named read-outs stand apart in the source and are kept apart here.

Assays:
[1] = tested on: Ba/F3 cells expressing FLAG-KRAS G12C/H95Q; test: Ba/F3 proliferation, CellTiter-Glo, 3 days (Example 4); type: cell-based, murine; conditions: for % growth of treated cells relative to day 3 treatment: H95Q
Description: (§1) The parental Ba/F3 cells were cultured in the presence of 5 ng/ml of recombinant murine IL-3 (Life Technologies, #PMC0035).
(§2) The mutant plasmids were transfected into the Ba/F3 WT cells by electroporation with the NEON transfection kit (Invitrogen, #MPK10025).
(§3) Ba/F3 cells are normally dependent on IL-3 to survive and proliferate, however, by expressing oncogenes they are able to switch their dependency from IL-3 to the expressed oncogene. […] Cell number and viability was measured every three days and after seven days the IL-3 withdrawal was completed.
(§4) Treatment was performed on the same day with a Tecan D300e drug dispenser. Viability was detected on the same day of treatment for the start plate (Day 0) and three days post-treatment (Day 3) using the CellTiter-Glo Luminescent Cell Viability Assay (Promega, #G7573) on a Tecan infinitiy M200 Pro reader (Intergration Time 1000 ms).
(§5) To determine the growth, the three days post-treatment (Day 3) readout was normalized to start plate (Day 0). The percentage viability was then calculated by normalizing treated wells to DMSO treated control samples. XLfit was used to make the fitted curve with a Sigmoidal Dose-Response Model (four-parameter curve) (FIG. 9).

[2] = tested on: Ba/F3 cells expressing FLAG-KRAS G12C/H95R; test: as above; type: cell-based, murine
Description: as §1, §2, §3, §4, §5

[3] = tested on: Ba/F3 cells expressing FLAG-KRAS G12C/R68S; test: as above; type: cell-based, murine
Description: as §1, §2, §3, §4, §5

[4] = tested on: Ba/F3 cells expressing FLAG-KRAS G12C/Y96C; test: as above; type: cell-based, murine
Description: as §1, §2, §3, §4, §5

[5] = tested on: Ba/F3 cells expressing FLAG-KRAS G12C/Y96D; test: as above; type: cell-based, murine
Description: as §1, §2, §3, §4, §5

[6] = tested on: Ba/F3 cells expressing FLAG-KRAS^G12C; test: as above; type: cell-based, murine; conditions: for GI50: Mus musculus
Description: as §1, §2, §3, §4, §5

[7] = tested on: human KRAS G12C-mutated CRC PDX models; test: CRC patient-derived xenograft (PDX) panel; type: in vivo, nude mice; conditions: Compound A alone, 100 mg/kg QD oral
Description: The antitumor efficacy of JDQ443±inhibitors of RAS-upstream or RAS-downstream signaling was evaluated in PDX panels of human KRAS G12C-mutated NSCLC and CRC.
Patient-derived xenograft (PDX) models of human NSCLC and CRC were established by direct implantation of patient NSCLC or CRC tumor tissue subcutaneously into nude mice. PDX models were maintained through in vivo serial passaging.
A cohort of mice was implanted subcutaneously with tumor fragments from each PDX model (typically passages 4-9). Ten NSCLC and nine CRC PDX models were used. Each model is named with a code, e.g. 30580-HX, 30581-HX etc, for identification and tracking purposes. Individual mice were assigned to treatment groups or control groups for dosing once their tumor volume reached 200-250 mm^3 (T=0, on the x-axis of the spider plots). One animal per PDX model was assigned to each treatment arm. Once enrolled into treatment arms, tumor volumes were measured twice weekly by caliper, and tumor volume was estimated in […] using the formula: Length×Width^2/2. The end of study per model was defined as minimum of 28 days treatment, or duration for untreated tumor to reach 1500 mm^3, or duration for 2 doublings of untreated tumor, whichever was slower.
The Raf inhibitor (LXH254 (naporafenib)) was formulated as a suspension. […]

In the case of `C=CC(=O)N1CC2(CC(n3nc(-c4ccc5c(cnn5C)c4)c(-c4c(Cl)c(C)cc5[nH]ncc45)c3C)C2)C1` (single isomer, unassigned) [Compound A, 1-{6-[(4M)-4-(5-Chloro-6-methyl-1H-indazol-4-yl)-5-methyl-3-(1-methyl-1H-indazol-5-yl)-1H-pyrazol-1-yl]-2-azaspiro[3.3]heptan-2-yl}prop-2-en-1-one], the “% growth of treated cells relative to day 3 treatment” value ([1]; conc 0.000457 μM) is reported as 100.054%, the “% growth of treated cells relative to day 3 treatment” value ([1]; conc 0.001372 μM) is reported as 93.606% and the “% growth of treated cells relative to day 3 treatment” value ([1]; conc 0.004115 μM) is reported as 103.375%. The “% growth of treated cells relative to day 3 treatment” value ([1]; conc 0.012346 μM) was 95.722%, the “% growth of treated cells relative to day 3 treatment” value ([1]; conc 0.037037 μM) was 93.319% and the “% growth of treated cells relative to day 3 treatment” value ([1]; conc 0.111111 μM) was 71.333%. The “% growth of treated cells relative to day 3 treatment” value ([1]; conc 0.333333 μM) was 36.908%, the “% growth of treated cells relative to day 3 treatment” value ([1]; conc 1 μM) was 6.635% and the GI50 ([1]; Mus musculus, BaF3, 72 h, G12C/H95Q, 3 days, average of 4 independent experiments) was 284 ± 41 nM. The “% growth of treated cells relative to day 3 treatment” value ([2]; conc 0.000457 μM) was 103.118%, the “% growth of treated cells relative to day 3 treatment” value ([2]; conc 0.001372 μM) was 92.517% and the “% growth of treated cells relative to day 3 treatment” value ([2]; conc 0.004115 μM) was 83.996%. For the same compound, the “% growth of treated cells relative to day 3 treatment” value ([2]; conc 0.012346 μM) was 66.971%, the “% growth of treated cells relative to day 3 treatment” value ([2]; conc 0.037037 μM) was 52.178% and the “% growth of treated cells relative to day 3 treatment” value ([2]; conc 0.111111 μM) was 23.425%. The “% growth of treated cells relative to day 3 treatment” value ([2]; conc 0.333333 μM) was 5.323%, the “% growth of treated cells relative to day 3 treatment” value ([2]; conc 1 μM) was 0.321% and the “% growth of treated cells relative to day 3 treatment” value ([3]; conc 0.000457 μM) was 100.931%. For the same compound, the “% growth of treated cells relative to day 3 treatment” value ([3]; conc 0.001372 μM) was 103.390%, the “% growth of treated cells relative to day 3 treatment” value ([3]; conc 0.004115 μM) was 100.329% and the “% growth of treated cells relative to day 3 treatment” value ([3]; conc 0.012346 μM) was 104.608%. For the same compound, the “% growth of treated cells relative to day 3 treatment” value ([3]; conc 0.037037 μM) was 108.276%, the “% growth of treated cells relative to day 3 treatment” value ([3]; conc 0.111111 μM) was 103.721% and the “% growth of treated cells relative to day 3 treatment” value ([3]; conc 0.333333 μM) was 93.111%. The “% growth of treated cells relative to day 3 treatment” value ([3]; conc 1 μM) was 69.159%, the “% growth of treated cells relative to day 3 treatment” value ([4]; conc 0.000457 μM) was 109.116% and the “% growth of treated cells relative to day 3 treatment” value ([4]; conc 0.001372 μM) was 102.424%. For the same compound, the “% growth of treated cells relative to day 3 treatment” value ([4]; conc 0.004115 μM) was 105.515%, the “% growth of treated cells relative to day 3 treatment” value ([4]; conc 0.012346 μM) was 96.167% and the “% growth of treated cells relative to day 3 treatment” value ([4]; conc 0.037037 μM) was 104.222%. The “% growth of treated cells relative to day 3 treatment” value ([4]; conc 0.111111 μM) was 102.592%, the “% growth of treated cells relative to day 3 treatment” value ([4]; conc 0.333333 μM) was 91.765% and the “% growth of treated cells relative to day 3 treatment” value ([4]; conc 1 μM) was 80.229%. The “% growth of treated cells relative to day 3 treatment” value ([5]; conc 0.000457 μM) was 100.903%, the “% growth of treated cells relative to day 3 treatment” value ([5]; conc 0.001372 μM) was 102.224% and the “% growth of treated cells relative to day 3 treatment” value ([5]; conc 0.004115 μM) was 98.191%. For the same compound, the “% growth of treated cells relative to day 3 treatment” value ([5]; conc 0.012346 μM) was 106.613%, the “% growth of treated cells relative to day 3 treatment” value ([5]; conc 0.037037 μM) was 103.946% and the “% growth of treated cells relative to day 3 treatment” value ([5]; conc 0.111111 μM) was 105.866%. For the same compound, the “% growth of treated cells relative to day 3 treatment” value ([5]; conc 0.333333 μM) was 97.260%, the “% growth of treated cells relative to day 3 treatment” value ([5]; conc 1 μM) was 90.864% and the “% growth of treated cells relative to day 3 treatment” value ([6]; G12C, conc 0.000457 μM) was 95.501%. The “% growth of treated cells relative to day 3 treatment” value ([6]; G12C, conc 0.001372 μM) was 97.516%, the “% growth of treated cells relative to day 3 treatment” value ([6]; G12C, conc 0.004115 μM) was 93.832% and the “% growth of treated cells relative to day 3 treatment” value ([6]; G12C, conc 0.012346 μM) was 89.361%. The “% growth of treated cells relative to day 3 treatment” value ([6]; G12C, conc 0.037037 μM) was 72.785%, the “% growth of treated cells relative to day 3 treatment” value ([6]; G12C, conc 0.111111 μM) was 44.204% and the “% growth of treated cells relative to day 3 treatment” value ([6]; G12C, conc 0.333333 μM) was 20.252%. The “% growth of treated cells relative to day 3 treatment” value ([6]; G12C, conc 1 μM) was 4.279%, the GI50 ([6]; BaF3, 72 h, G12C, 3 days, average of 4 independent experiments, read-out: GI50 ± St DV) was 115 ± 60 nM and the GI50 ([6]; BaF3, KRAS G12C, read-out: GI50) was 115 ± 60 nM. For the same compound, the anti-tumor response [7] was “moderate anti-tumor response in a few models”.
